Experimental data: patent publication US7884199B2, “HCV NS3-NS4 protease resistance mutants” (priority 2003, dated 2011)
Like-named read-outs stand apart in the source and are kept apart here.

Tests used:
[1] = biological target: wild type HCV NS3 serine protease domain, genotype 1b (Hepatitis C virus genotype 1b, UniProt Q9WMX2); experiment: biochemical
[2] = biological target: T1, A156S mutant HCV NS3 serine protease domain (Hepatitis C virus genotype 1b, UniProt Q9WMX2, A1182S); experiment: FRET enzyme assay, Ki; format: biochemical
T1 construct: A DNA fragment encoding residues Ala^1-Ser^181 of the HCV NS3 protease (GenBank CAB46913); hexa-histidine (C); made in house; host or cells: E. coli BL21/DE3 pLysS

[3] = biological target: T2, D168V mutant HCV NS3 serine protease domain (Hepatitis C virus genotype 1b, UniProt Q9WMX2, D1194V); experiment: FRET enzyme assay, Ki; format: biochemical
T2 construct: A DNA fragment encoding residues Ala^1-Ser^181 of the HCV NS3 protease (GenBank CAB46913); hexa-histidine (C); made in house; host or cells: E. coli BL21/DE3 pLysS

[4] = biological target: T3, D168A mutant HCV NS3 serine protease domain (Hepatitis C virus genotype 1b, UniProt Q9WMX2, D1194A); experiment: FRET enzyme assay, Ki; format: biochemical
T3 construct: A DNA fragment encoding residues Ala^1-Ser^181 of the HCV NS3 protease (GenBank CAB46913); hexa-histidine (C); made in house; host or cells: E. coli BL21/DE3 pLysS

[5] = biological target: T4, A156T mutant HCV NS3 serine protease domain (Hepatitis C virus genotype 1b, UniProt Q9WMX2, A1182T); experiment: FRET enzyme assay, Ki; format: biochemical
T4 construct: A DNA fragment encoding residues Ala^1-Ser^181 of the HCV NS3 protease (GenBank CAB46913); hexa-histidine (C); made in house; host or cells: E. coli

[6] = biological target: T5, A156V mutant HCV NS3 serine protease domain (Hepatitis C virus genotype 1b, UniProt Q9WMX2, A1182V); experiment: FRET enzyme assay, Ki; format: biochemical
T5 construct: A DNA fragment encoding residues Ala^1-Ser^181 of the HCV NS3 protease (GenBank CAB46913); hexa-histidine (C); made in house; host or cells: E. coli

[7] = test system: wild-type HCV Con1 sub-genomic replicon cells; experiment: HCV replicon cell assay, 48-hour; format: cell-based, Hepatitis C virus; conditions: Hepatitis C virus, 48-hour assay
Procedure: (§1) Cells containing hepatitis C virus (HCV) replicon were maintained in DMEM containing 10% fetal bovine serum (FBS), 0.25 mg per ml of G418, with appropriate supplements (media A).
(§2) On day 1, replicon cell monolayer was treated with a trypsin:EDTA mixture, removed, and then media A was diluted into a final concentration of 100,000 cells per ml with. 10,000 cells in 100 ul were plated into each well of a 96-well tissue culture plate, and cultured overnight in a tissue culture incubator at 37° C.
On day 2, compounds (in 100% DMSO) were serially diluted into DMEM containing 2% FBS, 0.5% DMSO, with appropriate supplements (media B). […]
(§3) A Taqman real-time RT-PCR quantification assay was set up with two sets of specific primers and probe. […] Total RNA extractants from treated HCV replicon cells was added to the PCR reactions for quantification of both HCV and BVDV RNA in the same PCR well. […] The level of HCV RNA in each well was calculated according to a standard curve run in the same PCR plate. The percentage of inhibition or decrease of HCV RNA level due to compound treatment was calculated using the DMSO or no compound control as 0% of inhibition. The cytotoxicity of the compounds was measured using a mitochondrial enzyme-based cell viability assay, CellTiter 96 AQueous One Solution Cell Proliferation Assay (Promega).

[8] = test system: wild type HCV replicon cells (high efficiency Con1 replicon); experiment: HCV replicon cell assay, 48-hour; format: cell-based, Hepatitis C virus; conditions: 48-hour assay, HCV RNA level, read-out: Replicon IC50
Description: (§4) During the course of generating of the HCV sub-genomic replicon stable cell lines, several different patterns of adaptive mutations were identified. One pattern has three substitutions in the HCV nonstructural proteins, which were introduced into the original pBR322-HCV-Neo plasmid by site-directed mutagenesis to generate the second-generation sub-genomic replicon plasmid, pBR322-HCV-Neo-mADE. When the T7 run-offRNA transcripts from the Sca I-linearized pBR322-HCV-Neo-mADE plasmid were electroporated into Huh7 cells, stable replicon cell colonies were formed at a much higher efficiency than the original Con1 replicon RNA. The resistance mutations identified in this study were introduced into the pBR322-HCV-Neo-mADE replicon plasmid by site-directed mutagenesis. Stable replicon cell lines were generated using the T7 transcripts derived from either wild type pBR322-HCV-Neo-mADE or the ones with the resistance mutations.
as §1
On day 1, replicon cell monolayer was treated with a trypsin:EDTA mixture, removed, and then media A was diluted into a final concentration of 100,000 cells per ml with. […]
as §3, with “(Promega). […]” for “(Promega).”

[9] = test system: A156S HCV replicon cells; experiment: HCV replicon cell assay, 48-hour; format: cell-based, Hepatitis C virus
Description: as §4, §1, §2
(§5) On day 2, compounds (in 100% DMSO) were serially diluted into DMEM containing 2% FBS, 0.5% DMSO, with appropriate supplements (media B). The final concentration of DMSO was maintained at 0.5% throughout the dilution series.
(§6) Media on the replicon cell monolayer was removed, and then media B containing various concentrations of compounds was added. Media B without any compound was added to other wells as no compound controls.
(§7) Cells were incubated with compound or 0.5% DMSO in media B for 48 hours in a tissue culture incubator at 37° C. At the end of the 48-hour incubation, the media was removed, and the replicon cell monolayer was washed once with PBS and stored at −80° C. prior to RNA extraction.
(§8) Culture plates with treated replicon cell monolayers were thawed, and a fixed amount of another RNA virus, such as Bovine Viral Diarrhea Virus (BVDV) was added to cells in each well. RNA extraction reagents (such as reagents from RNeasy kits) were added to the cells immediately to avoid degradation of RNA. Total RNA was extracted according the instruction of manufacturer with modification to improve extraction efficiency and consistency. Finally, total cellular RNA, including HCV replicon RNA, was eluted and stored at −80° C. until further processing.
(§9) A Taqman real-time RT-PCR quantification assay was set up with two sets of specific primers and probe. One was for HCV and the other was for BVDV. Total RNA extractants from treated HCV replicon cells was added to the PCR reactions for quantification of both HCV and BVDV RNA in the same PCR well. Experimental failure was flagged and rejected based on the level of BVDV RNA in each well. The level of HCV RNA in each well was calculated according to a standard curve run in the same PCR plate. The percentage of inhibition or decrease of HCV RNA level due to compound treatment was calculated using the DMSO or no compound control as 0% of inhibition. The cytotoxicity of the compounds was measured using a mitochondrial enzyme-based cell viability assay, CellTiter 96 AQueous One Solution Cell Proliferation Assay (Promega).
(§10) Four HCV sub-genomic replicon stable cell lines, including the wild type (wt), and three mutants, A156S, D168V and D168A, were generated using the T7 RNA runoff transcripts from the corresponding high efficiency Con1 replicon plasmids.

[10] = test system: D168A HCV replicon cells; experiment: HCV replicon cell assay, 48-hour; format: cell-based, Hepatitis C virus; conditions: Hepatitis C virus, 48-hour assay
Description: as §4, §1, §2, §5, §6, §7, §8, §9, §10

[11] = test system: D168V HCV replicon cells; experiment: HCV replicon cell assay, 48-hour; format: cell-based, Hepatitis C virus; conditions: Hepatitis C virus, 48 h, read-out: Replicon IC50
Description: as §4, §1, §2, §5, §6, §7, §8, §9, §10

[12] = test system: A156T HCV replicon cells; experiment: HCV replicon cell assay, 48-hour; format: cell-based, Hepatitis C virus
Description: as §4, §1, §2, §5, §6, §7, §8, §9
(§11) Table 6 summary: Three HCV sub-genomic replicon stable cell lines, including the wild-type, and two mutants, A156T and A156V, were generated using the T7 RNA runoff transcripts from the corresponding high efficiency Con 1 replicon plasmids.

[13] = test system: A156V HCV replicon cells; experiment: HCV replicon cell assay, 48-hour; format: cell-based, Hepatitis C virus
Description: as §4, §1, §2, §5, §6, §7, §8, §9, §11

[14] = test system: series A (VX-950-resistant) replicon cells; experiment: HCV replicon cell assay, 48-hour; format: cell-based, Hepatitis C virus; conditions: Hepatitis C virus; series A replicon cells at day 56
[15] = test system: series B (BILN 2061-resistant) replicon cells; experiment: HCV replicon cell assay, 48-hour; format: cell-based; conditions: Hepatitis C virus
[16] = test system: series C (double-resistant) replicon cells; experiment: HCV replicon cell assay, 48-hour; format: cell-based, Hepatitis C virus; conditions: 30 μM VX-950, series C replicon cells at day 52
[17] = test system: series D (double-resistant) replicon cells; experiment: HCV replicon cell assay, 48-hour; format: cell-based, Hepatitis C virus
[18] = Hepatitis C virus, 48-hour assay

For `CCC[C@H](NC(=O)C1[C@H]2CCC[C@H]2CN1C(=O)[C@@H](NC(=O)[C@@H](NC(=O)c1cnccn1)C1CCCCC1)C(C)(C)C)C(=O)C(=O)NC1CC1` (some centres unmarked) [VX-950], the Ki [1] was 0.1 µM, the Ki [2] was 2.9 µM and the “Ki higher than against the wild type protease” value [2] was 29 fold. It also gave a Ki [3] of 0.043 µM, a Ki [4] of 0.15 µM and a Ki [5] of 9.9 µM. It also gave a Ki [6] of 33 µM, an IC50 [7] of 0.354 µM and an IC50 [8] of 0.402 µM. For the same molecule, the IC50 ([8]; Hepatitis C virus, 48 h) was 0.4 µM, the IC50 ([9]; Hepatitis C virus) was 4.65 µM and the IC50 ([9]; Hepatitis C virus, 48 h, 48-hour assay, read-out: Replicon IC50) was 4.65 µM. For the same molecule, the IC50 ([9]; read-out: Replicon IC50, 48-hour assay) was 5.09 µM, the IC50 [10] was 0.193 µM and the IC50 [11] was 0.163 µM. For the same molecule, the “decrease in sensitivity conferred by the mutation” value [12] was “at least 75 fold”, the IC50 [12, 18] was > 30 µM and the “reduction of HCV replicon RNA” value ([12]; up to 30 μM VX-950) was “No significant reduction”. The “decrease in sensitivity conferred by the mutation” value [13] was “at least 75 fold”, the IC50 [13, 18] was > 30 µM and the “reduction of HCV replicon RNA” value ([13]; up to 30 μM VX-950) was “No significant reduction”. For the same molecule, the IC50 [14] was 8.1 to 12 µM, the IC50 [15] was ~0.3 µM and the “reduction of HCV RNA” value [16] was ≤ 50%. For the same molecule, the “reduction of HCV RNA” value ([17]; 30 μM VX-950, series D replicon cells at day 52) was ≤ 50% and the “IC50 higher than against the series B replicon cells” value ([17]; series D replicon cells at day 52) was “more than 100 fold”.
